Laboratory results reported in patent publication US12473301B2, “Isoquinoline compounds for the treatment of cancer” (Genentech, Inc., priority 2018, dated 2025).

Target: HPK1 (Homo sapiens (Human), UniProt Q92918, S171E/T165E)
Assay: HPK1-FL HTRF Enzymatic Assay ("HTRF")
Format: biochemical
Settings: HPK full length, ATP 1 mM
Procedure: HPK1-FL HTRF Enzymatic Assay (“HTRF”)
HPK-FL enzyme phosphorylates Biotin-SLP-76 substrate in the presence of ATP at 1 mM and varying concentrations of test compound. Product is detected by FRET using Eu-anti-pSLP76 Ab and SA-XL665. Also see www.cisbio.com/HTRF for additional HTRF technology information.
Instrumentation: Echo555 compound dispenser; Agilent Bravo; Perkin Elmer Envision.
To a 384 well Proxiplate with 80 nL compound or DMSO spotted on was added 4 μl/well kinase mix. The mixture was preincubated for 30 minutes and then 4 μl/well substrate mix was added. The solution was incubated for 60 min and then 4 μl/well detection mix was added. The solution was incubated for another 60 min. The plates were then loaded onto a
Perkin Elmer Envision and the TR-FRET signal was measured at […] and 665 nm. A ratio of 665/620 was used to calculate the % activity at each concentration of compound.

Chain of HPK1 (Q92918 whole entry T165E/S171E): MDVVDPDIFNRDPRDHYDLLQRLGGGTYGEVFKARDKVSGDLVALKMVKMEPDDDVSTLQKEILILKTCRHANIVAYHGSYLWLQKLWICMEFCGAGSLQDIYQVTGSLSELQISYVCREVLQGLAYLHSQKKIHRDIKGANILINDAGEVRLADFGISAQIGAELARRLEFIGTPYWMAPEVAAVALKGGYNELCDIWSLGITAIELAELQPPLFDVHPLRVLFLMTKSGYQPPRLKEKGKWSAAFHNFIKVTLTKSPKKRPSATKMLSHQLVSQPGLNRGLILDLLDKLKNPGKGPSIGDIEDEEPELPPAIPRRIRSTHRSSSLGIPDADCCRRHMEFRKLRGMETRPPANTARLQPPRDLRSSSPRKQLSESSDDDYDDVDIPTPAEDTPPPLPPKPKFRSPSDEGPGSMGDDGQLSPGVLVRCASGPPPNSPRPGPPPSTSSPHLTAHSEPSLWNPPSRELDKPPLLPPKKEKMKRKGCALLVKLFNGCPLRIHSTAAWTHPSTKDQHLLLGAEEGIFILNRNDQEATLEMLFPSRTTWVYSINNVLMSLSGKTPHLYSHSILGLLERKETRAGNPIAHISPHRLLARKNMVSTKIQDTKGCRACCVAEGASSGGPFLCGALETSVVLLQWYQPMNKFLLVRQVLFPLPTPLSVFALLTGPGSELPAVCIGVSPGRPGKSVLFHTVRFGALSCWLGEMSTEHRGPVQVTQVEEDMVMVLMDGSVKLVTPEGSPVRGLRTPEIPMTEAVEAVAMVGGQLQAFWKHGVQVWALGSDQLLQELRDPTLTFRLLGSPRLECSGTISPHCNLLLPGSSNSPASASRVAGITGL

With `Cc1c(-c2cc3cc(NC(=O)OCCN)ncc3cc2F)cnc2c1NCCO2` [Compound 112, 2-Aminoethyl (7-fluoro-6-(8-methyl-2,3-dihydro-1H-pyrido[2,3-b][1,4]oxazin-7-yl)isoquinolin-3-yl)carbamate] as the compound, how does the Ki read?
Its Ki is 32 nM.

With `Cc1c(-c2cc3cc(NC(=O)OCCS(C)(=O)=O)ncc3cc2F)cnc2c1NCCO2` [Compound 117, 2-(Methylsulfonyl)ethyl (7-fluoro-6-(8-methyl-2,3-dihydro-1H-pyrido[2,3-b][1,4]oxazin-7-yl)isoquinolin-3-yl)carbamate] as the compound, how does the Ki read?
Its Ki is 6.2 nM.

Which Ki does the source give for `Cc1c(-c2cc3cc(NC(=O)OCC(F)(F)F)ncc3cc2F)cnc2c1NCCO2` [Compound 118, 2,2,2-Trifluoroethyl (7-fluoro-6-(8-methyl-2,3-dihydro-1H-pyrido[2,3-b][1,4]oxazin-7-yl)isoquinolin-3-yl)carbamate] here?
The Ki was 205 nM.

For `Cc1c(-c2cc3cc(NC(=O)OCCc4ccccn4)ncc3cc2F)cnc2c1NCCO2` [Compound 119, 2-(Pyridin-2-yl)ethyl (7-fluoro-6-(8-methyl-2,3-dihydro-1H-pyrido[2,3-b][1,4]oxazin-7-yl)isoquinolin-3-yl)carbamate], which Ki is on record?
Its Ki is 9.5 nM.

Which Ki does the source give for `Cc1c(-c2cc3cc(NC(=O)OCC(C)(C)C)ncc3cc2F)cnc2c1NCCO2` [Compound 120, Neopentyl (7-fluoro-6-(8-methyl-2,3-dihydro-1H-pyrido[2,3-b][1,4]oxazin-7-yl)isoquinolin-3-yl)carbamate] here?
The Ki was 4.3 nM.

For `Cc1c(-c2cc3cc(NC(=O)OC4CC5CC4CN5)ncc3cc2F)cnc2c1NCCO2` (stereo not shown) [Compound 121, 2-Azabicyclo[2.2.1]heptan-5-yl (7-fluoro-6-(8-methyl-2,3-dihydro-1H-pyrido[2,3-b][1,4]oxazin-7-yl)isoquinolin-3-yl)carbamate], which Ki is on record?
Its Ki is 8.7 nM.

Which Ki does the source give for `Cc1c(-c2cc3cc(NC(=O)OCCC4C5CNCC45)ncc3cc2F)cnc2c1NCCO2` (stereo not shown) [Compound 124, 2-(3-Azabicyclo[3.1.0]hexan-6-yl)ethyl (7-fluoro-6-(8-methyl-2,3-dihydro-1H-pyrido[2,3-b][1,4]oxazin-7-yl)isoquinolin-3-yl)carbamate] here?
Its Ki is 0.44 nM.

How did the Ki turn out when `Cc1c(-c2cc3cc(NC(=O)OC4CC5(CNC5)C4)ncc3cc2F)cnc2c1NCCO2` [Compound 125, 2-Azaspiro[3.3]heptan-6-yl (7-fluoro-6-(8-methyl-2,3-dihydro-1H-pyrido[2,3-b][1,4]oxazin-7-yl)isoquinolin-3-yl)carbamate] was run?
Its Ki is 0.34 nM.

Which Ki does the source give for `Cc1c(-c2cc3cc(NC(=O)O[C@H]4[C@@H]5CNC[C@@H]54)ncc3cc2F)cnc2c1NCCO2` [Compound 129a, (1R,5S,6s)-3-Azabicyclo[3.1.0]hexan-6-yl (7-fluoro-6-(8-methyl-2,3-dihydro-1H-pyrido[2,3-b][1,4]oxazin-7-yl)isoquinolin-3-yl)carbamate] here?
The Ki was 0.58 nM.

For `Cc1c(-c2cc3cc(NC(=O)OC4CS(=O)(=O)C4)ncc3cc2F)cnc2c1NCCO2` [Compound 130, 1,1-Dioxidothientan-3-yl (7-fluoro-6-(8-methyl-2,3-dihydro-1H-pyrido[2,3-b][1,4]oxazin-7-yl)isoquinolin-3-yl)carbamate], which Ki is on record?
The Ki was 4.1 nM.

For `Cc1c(-c2cc3cc(NC(=O)OC4CC5(C4)CN(C)C5)ncc3cc2F)cnc2c1NCCC2` [Compound 132, 2-Methyl-2-azaspiro[3.3]heptan-6-yl (7-fluoro-6-(4-methyl-5,6,7,8-tetrahydro-1,5-naphthyridin-3-yl)isoquinolin-3-yl)carbamate], which Ki is on record?
Its Ki is 1.15 nM.

For `Cc1c(-c2cc3cc(NC(=O)OC4CC5(CCN(C)CC5)C4)ncc3cc2F)cnc2c1NCCC2` [Compound 133, 7-Methyl-7-azaspiro[3.5]nonan-2-yl (7-fluoro-6-(4-methyl-5,6,7,8-tetrahydro-1,5-naphthyridin-3-yl)isoquinolin-3-yl)carbamate], which Ki is on record?
Its Ki is 1.07 nM.

Which Ki does the source give for `Cc1c(-c2cc3cc(NC(=O)OC4CC5(CCNC5)C4)ncc3cc2F)cnc2c1NCCO2` (stereo not shown) [Compound 134, 6-Azaspiro[3.4]octan-2-yl (7-fluoro-6-(8-methyl-2,3-dihydro-1H-pyrido[2,3-b][1,4]oxazin-7-yl)isoquinolin-3-yl)carbamate] here?
The Ki was 0.47 nM.

For `Cc1c(-c2cc3cc(NC(=O)NCC4CC4)ncc3cc2F)cnc2c1NCCO2` [Compound 202, 1-(Cyclopropylmethyl)-3-(7-fluoro-6-(8-methyl-2,3-dihydro-1H-pyrido[2,3-b][1,4]oxazin-7-yl)isoquinolin-3-yl)urea], which Ki is on record?
The Ki was 0.5 nM.

`Cc1c(-c2cc3cc(NC(=O)NC4CCOCC4)ncc3cc2F)cnc2c1NCCO2` [Compound 204, 1-(7-Fluoro-6-(8-methyl-2,3-dihydro-1H-pyrido[2,3-b][1,4]oxazin-7-yl)isoquinolin-3-yl)-3-(tetrahydro-2H-pyran-4-yl)urea] was tested. Which Ki did it give?
The Ki was 0.83 nM.

`Cc1c(-c2cc3cc(NC(=O)NC4CNC4)ncc3cc2F)cnc2c1NCCO2` [Compound 205, 1-(Azetidin-3-yl)-3-(7-fluoro-6-(8-methyl-2,3-dihydro-1H-pyrido[2,3-b][1,4]oxazin-7-yl)isoquinolin-3-yl)urea] was tested. Which Ki did it give?
Its Ki is 0.76 nM.

Which Ki does the source give for `Cc1c(-c2cc3cc(NC(=O)NC4CC4)ncc3cc2F)cnc2c1NCCO2` [Compound 207, 1-Cyclopropyl-3-(7-fluoro-6-(8-methyl-2,3-dihydro-1H-pyrido[2,3-b][1,4]oxazin-7-yl)isoquinolin-3-yl)urea] here?
Its Ki is 0.2 nM.

For `CC[C@@H]1[C@H](C(=O)Nc2cc3cc(-c4c[n+]([O-])ccc4C)c(F)cc3cn2)[C@H]1c1cnn(C)c1` [Compound 302a, 3-(3-((1S,2S,3S)-2-Ethyl-3-(1-methyl-1H-pyrazol-4-yl)cyclopropane-1-carboxamido)-7-fluoroisoquinolin-6-yl)-4-methylpyridine 1-oxide], which Ki is on record?
The Ki was 1280 nM.

How did the Ki turn out when `CC[C@H]1[C@H](C(=O)Nc2cc3cc(-c4c[n+]([O-])ccc4C)c(F)cc3cn2)[C@H]1c1cnn(C)c1` [Compound 302b, 3-(3-((1S,2R,3S)-2-Ethyl-3-(1-methyl-1H-pyrazol-4-yl)cyclopropane-1-carboxamido)-7-fluoroisoquinolin-6-yl)-4-methylpyridine 1-oxide] was run?
The Ki was 2000 nM.
